# Source: patent US8932590B2, “Method of adsorbing transforming growth factor β” (TORAY Industries, Inc., priority 2002, dated 2015)
# Where a name gives a salt, the structure may show the parent alone.
# Experiments:
# tumor [1] = assay: Visual observation of tumor metastasis; type: in vivo, rat; conditions: rats dissected 35 days after the extracorporeal perfusion, region other than beneath the back skin
# Source text: The test procedures of Examples 10 to 15 and Comparative Examples 11 to 22 were repeated, except for using three other rats (Examples 16 to 18, and Comparative Examples 21 to 26). The metastasis of the tumor to a region other than beneath the back skin to which the tumor was inoculated was visually observed (Table 6). The rats were dissected 35 days after the extracorporeal perfusion, and the tumor was observed. As a result, the metastasis was hardly observed in cases in which the extracorporeal perfusion treatment was carried out two days into the administration of gemcitabine hydrochloride.
# tumor [2] = assay: Combined treatment of anticancer agent and extracorporeal perfusion: tumor volume; type: in vivo, rat; conditions: anticancer agent administered, no extracorporeal perfusion
# Procedure: The dimensions of the tumor region of a rat were measured using micrometer calipers. The longest diameter of the tumor was defined as the major axis, and a diameter of the tumor passing through the midpoint of the major axis in a direction perpendicular to the major axis was defined as the minor axis. The tumor volume was defined according to the following equation: Tumor Volume=(Major Axis)×(Minor Axis)×(Minor Axis)×0.5[Adsorbent for TGF β and Immunosuppressive Acidic Protein] […]
# One week after the inoculation of cancer cells (rat body weight: 400 to 430 g), 0.6 mg of gemcitabine hydrochloride was injected in the vicinity of the tumor. The gemcitabine hydrochloride used herein was prepared by dissolving an injection preparation thereof (available from Eli Lilly Japan K.K.) in physiological saline to yield a 20 mg/mL solution. […]
# Six rats were treated, and the tumor volumes after the inoculation of cancer cells were determined. The results in Comparative Examples 15 to 20, in which the anticancer agent was administered but the extracorporeal perfusion treatment was not carried out, are shown in Table 5.
compound,measurement,setting,value
"Nc1ccn([C@@H]2O[C@H](CO)[C@@H](O)C2(F)F)c(=O)n1 [Comparative Example 15, gemcitabine hydrochloride]",Metastasis (visual observation),"tumor [1]; listed as Com. Ex. 25, hydrochloride",dermic micrometastasis (2 mm
same,Metastasis (visual observation),"tumor [1]; listed as Com. Ex. 26, hydrochloride",dermic micrometastasis (2 mm
same,Tumor volume,tumor [2]; 14 days after inoculation of cancer cells,<0.06 mL
same,Tumor volume,"tumor [2]; 21 days after inoculation of cancer cells, hydrochloride",4.3 mL
same,Tumor volume,"tumor [2]; 21 days after inoculation of cancer cells, listed as Comparative Example 16, hydrochloride",7.9 mL
same,Tumor volume,"tumor [2]; 21 days after inoculation of cancer cells, listed as Comparative Example 17, hydrochloride",6.6 mL
same,Tumor volume,"tumor [2]; 21 days after inoculation of cancer cells, listed as Comparative Example 18, hydrochloride",7.4 mL
same,Tumor volume,"tumor [2]; 21 days after inoculation of cancer cells, listed as Comparative Example 19, hydrochloride",7.0 mL
same,Tumor volume,"tumor [2]; 21 days after inoculation of cancer cells, listed as Comparative Example 20, hydrochloride",4.5 mL
same,Tumor volume,"tumor [2]; 28 days after inoculation of cancer cells, hydrochloride",26 mL
same,Tumor volume,"tumor [2]; 28 days after inoculation of cancer cells, listed as Comparative Example 16, hydrochloride",41 mL
same,Tumor volume,"tumor [2]; 28 days after inoculation of cancer cells, listed as Comparative Example 17, hydrochloride",24 mL
same,Tumor volume,"tumor [2]; 28 days after inoculation of cancer cells, listed as Comparative Example 18, hydrochloride",35 mL
same,Tumor volume,"tumor [2]; 28 days after inoculation of cancer cells, listed as Comparative Example 19, hydrochloride",30 mL
same,Tumor volume,"tumor [2]; 28 days after inoculation of cancer cells, listed as Comparative Example 20, hydrochloride",25 mL
same,Tumor volume,"tumor [2]; 35 days after inoculation of cancer cells, hydrochloride",41 mL
same,Tumor volume,"tumor [2]; 35 days after inoculation of cancer cells, listed as Comparative Example 16, hydrochloride",59 mL
same,Tumor volume,"tumor [2]; 35 days after inoculation of cancer cells, listed as Comparative Example 17, hydrochloride",38 mL
same,Tumor volume,"tumor [2]; 35 days after inoculation of cancer cells, listed as Comparative Example 18, hydrochloride",54 mL
same,Tumor volume,"tumor [2]; 35 days after inoculation of cancer cells, listed as Comparative Example 19, hydrochloride",47 mL
same,Tumor volume,"tumor [2]; 35 days after inoculation of cancer cells, listed as Comparative Example 20, hydrochloride",37 mL
